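A five-concentration, 48-hour dose response in 96-well plates underlies each endpoint, interpolated linearly between surrounding concentrations. Abbreviation: GI50, concentration required for 50% inhibition of growth. TGI is the concentration that stops growth completely.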
Columns and labels:
Assay in all cases: DTP human tumour cell line panel, 48 h
MCF7 breast = tested on: MCF7 breast
M14 melanoma = tested on: M14 melanoma
HT29 colon = tested on: HT29 colon
UO-31 renal = tested on: UO-31 renal
NCI/ADR-RES ovarian = tested on: NCI/ADR-RES ovarian
TK-10 renal = tested on: TK-10 renal
SW-620 colon = tested on: SW-620 colon
SK-MEL-5 melanoma = tested on: SK-MEL-5 melanoma
BT-549 breast = tested on: BT-549 breast
OVCAR-3 ovarian = tested on: OVCAR-3 ovarian
SF-295 CNS = tested on: SF-295 CNS
NCI-H522 lung = tested on: NCI-H522 lung

SMILES: O=C1/C(=C/c2ccccc2[N+](=O)[O-])N=C(c2ccccc2)N1c1nc2ccccc2s1
- TGI (MCF7 breast): 90.4 µM
- TGI (M14 melanoma): > 100 µM
- TGI (HT29 colon): > 100 µM
- TGI (UO-31 renal): > 100 µM
- TGI (NCI/ADR-RES ovarian): 39.5 µM
- TGI (TK-10 renal): > 100 µM
- TGI (SW-620 colon): > 100 µM
- TGI (SK-MEL-5 melanoma): > 100 µM
- TGI (BT-549 breast): 49.4 µM
- TGI (OVCAR-3 ovarian): 51.9 µM
- TGI (SF-295 CNS): > 100 µM
- TGI (NCI-H522 lung): 40.1 µM

SMILES: COc1ccccc1/C=C/C1=NN(c2cccc(S(=O)(=O)O)c2)C2(C1)C(Cl)C(=O)N2c1nc2ccccc2s1 (stereo not given)
- TGI (MCF7 breast): > 100 µM
- TGI (M14 melanoma): > 100 µM
- TGI (HT29 colon): > 100 µM
- TGI (UO-31 renal): 33.5 µM
- TGI (NCI/ADR-RES ovarian): > 100 µM
- TGI (TK-10 renal): > 100 µM
- TGI (SW-620 colon): > 100 µM
- TGI (SK-MEL-5 melanoma): > 100 µM
- TGI (BT-549 breast): > 100 µM
- TGI (OVCAR-3 ovarian): > 100 µM
- TGI (SF-295 CNS): > 100 µM
- TGI (NCI-H522 lung): > 58.8 µM

SMILES: Cc1ccc2c(=O)cc(-c3ccc4ccccc4c3)[nH]c2n1
- TGI (MCF7 breast): 37.9 µM
- TGI (M14 melanoma): > 100 µM
- TGI (HT29 colon): > 100 µM
- TGI (UO-31 renal): > 100 µM
- TGI (NCI/ADR-RES ovarian): 48.5 µM
- TGI (TK-10 renal): > 100 µM
- TGI (SW-620 colon): > 100 µM
- GI50 (SK-MEL-5 melanoma): 3.3 µM
- TGI (SK-MEL-5 melanoma): 12.7 µM
- TGI (BT-549 breast): > 100 µM
- GI50 (OVCAR-3 ovarian): 3.59 µM
- TGI (OVCAR-3 ovarian): > 100 µM
- GI50 (SF-295 CNS): 3.8 µM
- TGI (SF-295 CNS): 39.6 µM
- TGI (NCI-H522 lung): 20.5 µM

SMILES: CCOC(=O)NC(Nc1ccc(F)cc1)(C(=O)OCC)C(F)(F)F (stereo not given)
- TGI (MCF7 breast): > 100 µM
- TGI (M14 melanoma): > 100 µM
- TGI (HT29 colon): > 100 µM
- TGI (UO-31 renal): > 100 µM
- TGI (NCI/ADR-RES ovarian): > 100 µM
- TGI (TK-10 renal): > 100 µM
- TGI (SW-620 colon): > 100 µM
- TGI (SK-MEL-5 melanoma): > 100 µM
- TGI (BT-549 breast): > 100 µM
- TGI (OVCAR-3 ovarian): > 100 µM
- TGI (SF-295 CNS): > 100 µM
- TGI (NCI-H522 lung): > 100 µM

SMILES: O=[N+]([O-])c1ccc(-n2nc3ccc4c(no[n+]4[O-])c3n2)cc1
- TGI (MCF7 breast): > 100 µM
- TGI (M14 melanoma): > 100 µM
- TGI (HT29 colon): > 100 µM
- TGI (UO-31 renal): > 100 µM
- TGI (NCI/ADR-RES ovarian): > 100 µM
- TGI (TK-10 renal): > 100 µM
- TGI (SW-620 colon): > 100 µM
- TGI (SK-MEL-5 melanoma): > 100 µM
- TGI (BT-549 breast): > 100 µM
- TGI (OVCAR-3 ovarian): > 100 µM
- TGI (SF-295 CNS): > 100 µM
- TGI (NCI-H522 lung): > 100 µM

SMILES: CC(C)=CCCC(C)CCOS(=O)C(F)(F)F (stereo not given)
- TGI (MCF7 breast): > 100 µM
- TGI (M14 melanoma): 6.59 µM
- TGI (HT29 colon): 28.5 µM
- TGI (UO-31 renal): 35.2 µM
- TGI (NCI/ADR-RES ovarian): 30.4 µM
- TGI (TK-10 renal): > 100 µM
- TGI (SW-620 colon): > 100 µM
- TGI (SK-MEL-5 melanoma): 33.1 µM
- TGI (BT-549 breast): 77.8 µM
- TGI (OVCAR-3 ovarian): 27.8 µM
- TGI (SF-295 CNS): 86.8 µM
- TGI (NCI-H522 lung): 5.12 µM
